{
  "source": "patent US20120141611A1",
  "about": "“METHODS AND COMPOSITIONS USING ERGOTHIONEINE TO TREAT A VARIETY OF HEALTH RELATED FACTORS” (Oxis International Inc., priority 2010, published 2012)",
  "origin": "cited, not measured here",
  "key": {"[1]": {"details": "Sheep; cited from earlier work"}, "[2]": {"details": "Ox; cited from earlier work"}, "[3]": {"details": "cited from earlier work"}, "erythrocytes [4]": {"tested_on": "erythrocytes", "details": "rats, administered in the diet; cited from earlier work"}, "[5]": {"details": "TLC densitometry, cited from earlier work"}, "A549 cells": {"tested_on": "A549 cells", "details": "cited from earlier work"}, "isolated rat heart": {"tested_on": "isolated rat heart", "details": "0.1 mM; cited from earlier work"}, "Mn-superoxide dismutase": {"target": "T1, Mn-superoxide dismutase (Mus musculus, UniProt P09671)", "T1 sequence (P09671 25-222)": "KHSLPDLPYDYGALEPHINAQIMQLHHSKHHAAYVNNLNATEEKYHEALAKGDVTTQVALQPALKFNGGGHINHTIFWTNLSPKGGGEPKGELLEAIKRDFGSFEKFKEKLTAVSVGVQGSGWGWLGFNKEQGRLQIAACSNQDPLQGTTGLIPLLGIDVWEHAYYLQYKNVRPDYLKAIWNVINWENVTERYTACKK", "details": "12.5 mM; cited from earlier work"}, "[6]": {"details": "cited from earlier work", "remark": "listed apart in the source"}, "[7]": {"details": "cited from earlier work", "remark": "listed apart in the source"}, "erythrocyte membrane": {"tested_on": "erythrocyte membrane", "details": "cited from earlier work"}, "[8]": {"details": "rat; cited from earlier work"}, "[9]": {"details": "into the organs, principally the liver; cited from earlier work"}, "glutathione reductase": {"target": "T2, glutathione reductase (Mus musculus, UniProt P47791)", "T2 construct": "glutathione peroxidase and glutathione reductase activities in mouse liver cytosol fractions; from tissue; host or cells: mouse liver cytosol fractions (result quoted from the literature)", "T2 sequence (P47791 27-500)": "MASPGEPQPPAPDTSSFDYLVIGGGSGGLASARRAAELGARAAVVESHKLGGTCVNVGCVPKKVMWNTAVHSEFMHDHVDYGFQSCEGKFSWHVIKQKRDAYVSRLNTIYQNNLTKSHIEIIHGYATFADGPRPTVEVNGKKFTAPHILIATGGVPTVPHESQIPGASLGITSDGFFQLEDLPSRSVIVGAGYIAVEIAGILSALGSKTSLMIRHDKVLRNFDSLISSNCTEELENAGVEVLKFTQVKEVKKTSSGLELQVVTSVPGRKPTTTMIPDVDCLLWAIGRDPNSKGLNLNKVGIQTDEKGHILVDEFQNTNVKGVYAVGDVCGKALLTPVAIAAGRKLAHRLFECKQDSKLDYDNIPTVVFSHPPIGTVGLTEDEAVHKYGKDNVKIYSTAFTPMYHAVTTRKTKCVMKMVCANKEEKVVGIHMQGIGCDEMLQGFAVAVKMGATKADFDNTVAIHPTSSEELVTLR", "details": "mouse liver cytosol fractions; cited from earlier work"}, "[10]": {"details": "cited from earlier work", "remark": "listed apart in the source"}, "[11]": {"details": "rats, 8 mg/100 gm body weight for 7 days pre-administration; cited from earlier work"}, "[12]": {"details": "animal experimental model of diabetes; cited from earlier work"}, "rat retina": {"tested_on": "rat retina", "details": "NMDA, cited from earlier work"}, "[13]": {"details": "Rat, cited from earlier work"}, "[14]": {"details": "Fowl; cited from earlier work"}, "[15]": {"details": "physiological concentrations; cited from earlier work"}, "human red cell cells": {"tested_on": "human red cell cells", "details": "1 mM, intact human red cells in vitro; cited from earlier work"}, "mouse skin": {"tested_on": "mouse skin", "details": "UV-induced skin damage; cited from earlier work"}, "spermatozoa": {"tested_on": "spermatozoa", "details": "cited from earlier work"}, "[16]": {"details": "ergothioneine ingestion or administration, humans or animals; cited from earlier work"}, "[17]": {"details": "animal studies, in the diet; cited from earlier work"}, "erythrocytes [18]": {"tested_on": "erythrocytes", "details": "added to hemolyzed erythrocytes or erythrocyte suspensions; cited from earlier work"}},
  "note": "Entries after “also recorded” stand apart in the source; their conditions may differ. Like-named read-outs stand apart in the source and are kept apart here.",
  "data": [
    {"smiles": "C[N+](C)(C)[C@@H](Cc1c[nH]c(=S)[nH]1)C(=O)[O-]", "note": "[Ergothioneine, ergothioneine]", "values": [
      {"measurement": "Concentration of l-ergothioneine in the blood", "setting": "[1]", "result": "2-6 mg/100 ml blood"},
      {"measurement": "Concentration of l-ergothioneine in the blood", "setting": "[2]", "result": "0.5-2 mg/100 ml blood"},
      {"measurement": "Concentration of l-ergothioneine in the blood", "setting": "[3]; Man", "result": "1-4 mg/100 ml blood"},
      {"measurement": "Levels in human blood cells", "setting": "[3]; healthy males from Saudi Arabia", "result": "1-4 mg/100 mL"},
      {"measurement": "Erythrocyte lactate level on starvation", "setting": "erythrocytes [4]", "result": "prevented a 40% starvation-induced diminution"},
      {"measurement": "Level in rat tissue", "setting": "[5]; brain", "result": 0.41, "unit": "mg/100 g"},
      {"measurement": "Level in rat tissue", "setting": "[5]; kidney", "result": 1.58, "unit": "mg/100 g"},
      {"measurement": "Level in rat tissue", "setting": "[5]; liver", "result": 7.82, "unit": "mg/100 g"},
      {"measurement": "Level in rat tissue", "setting": "[5]; plasma", "result": 0.21, "unit": "mg/100 g"},
      {"measurement": "Level in rat tissue", "setting": "[5]; testicle", "result": 0.5, "unit": "mg/100 g"},
      {"measurement": "H2O2 and TNF-alpha imposed oxidative stress in IL-8-CAT reporter system", "setting": "A549 cells", "result": "inhibits"},
      {"measurement": "Protection against reperfusion injury as measured by LDH release", "setting": "isolated rat heart", "result": "protected the isolated rat heart against reperfusion injury"},
      {"measurement": "Mitochondrial Mn-superoxide dismutase activity", "setting": "Mn-superoxide dismutase", "result": "nearly doubled"},
      {"measurement": "Concentration of LE in tissue", "setting": "[6]; Rabbit, Heart", "result": 2.7, "unit": "mgs/100 gm fresh tissue"},
      {"measurement": "Concentration of LE in tissue", "setting": "[6]; Rabbit, Kidney", "result": 0.3, "unit": "mgs/100 gm fresh tissue"},
      {"measurement": "Concentration of LE in tissue", "setting": "[6]; Rabbit, Liver", "result": 0.3, "unit": "mgs/100 gm fresh tissue"},
      {"measurement": "Concentration of LE in tissue", "setting": "[6]; Rabbit, Lungs", "result": 0.3, "unit": "mgs/100 gm fresh tissue"},
      {"measurement": "Concentration of LE in tissue", "setting": "[6]; Rabbit, RBC", "result": 10, "unit": "mgs/100 gm fresh tissue"},
      {"measurement": "Concentration of LE in tissue", "setting": "[6]; Rabbit, Spleen", "result": 1.0, "unit": "mgs/100 gm fresh tissue"},
      {"measurement": "Concentration of LE in tissue", "setting": "[6]; Rabbit, Testes", "result": 0.1, "unit": "mgs/100 gm fresh tissue"},
      {"measurement": "Concentration of l-ergothioneine in the blood", "setting": "[6]; Rabbit", "result": "1-10 mg/100 ml blood"},
      {"measurement": "Ergothioneine in optic nerves", "setting": "[6]; optic nerves of the rabbit", "result": 30, "unit": "µg/g"},
      {"measurement": "Concentration of LE in tissue", "setting": "[7]; Cat, Heart", "result": 0.0, "unit": "mgs/100 gm fresh tissue"},
      {"measurement": "Concentration of LE in tissue", "setting": "[7]; Cat, Kidney", "result": 3.1, "unit": "mgs/100 gm fresh tissue"},
      {"measurement": "Concentration of LE in tissue", "setting": "[7]; Cat, Liver", "result": 2.7, "unit": "mgs/100 gm fresh tissue"},
      {"measurement": "Concentration of LE in tissue", "setting": "[7]; Cat, Lungs", "result": 0.8, "unit": "mgs/100 gm fresh tissue"},
      {"measurement": "Concentration of LE in tissue", "setting": "[7]; Cat, RBC", "result": 2.9, "unit": "mgs/100 gm fresh tissue"},
      {"measurement": "Concentration of LE in tissue", "setting": "[7]; Cat, Testes", "result": 0.0, "unit": "mgs/100 gm fresh tissue"},
      {"measurement": "Concentration of l-ergothioneine in the blood", "setting": "[7]; Cat", "result": "0.5-2 mg/100 ml blood"},
      {"measurement": "Ergothioneine in brain", "setting": "[7]; brains of cats", "result": 3.0, "unit": "µg/g"},
      {"measurement": "Amount directly penetrating the erythrocyte membrane", "setting": "erythrocyte membrane", "result": "< 1", "unit": "%"},
      {"measurement": "Whole body half-life", "setting": "[8]", "result": "approximately 30 days"},
      {"measurement": "Disappearance from the plasma after intravenous administration", "setting": "[9]", "result": "rapid disappearance"},
      {"measurement": "Glutathione reductase activity", "setting": "glutathione reductase", "result": "markedly increased"},
      {"measurement": "Concentration of l-ergothioneine in the blood", "setting": "[10]; G. Pig", "result": "1-4 mg/100 ml blood"},
      {"measurement": "Ergothioneine in brain", "setting": "[10]; brains of guinea-pigs", "result": 10, "unit": "µg/g"},
      {"measurement": "Hepatic injury after a single injection of ethionine", "setting": "[11]", "result": "inhibited"},
      {"measurement": "Hepatic lipid peroxide formation", "setting": "[11]", "result": "reduced"},
      {"measurement": "Developmental defects of embryos", "setting": "[12]", "result": "reverse the developmental defects to almost that of the control group"},
      {"measurement": "Loss of nonganglion cells", "setting": "rat retina; rats treated with ergothioneine (43% without)", "result": 31, "unit": "%"},
      {"measurement": "Loss of ganglion cells", "setting": "rat retina; rats treated with ergothioneine (81% without)", "result": 44, "unit": "%"},
      {"measurement": "Ameloid Precursor Protein (APP)", "setting": "rat retina", "result": "significant decreases"},
      {"measurement": "Concentration of LE in tissue", "setting": "[13]; Heart", "result": 1.5, "unit": "mgs/100 gm fresh tissue"},
      {"measurement": "Concentration of LE in tissue", "setting": "[13]; Intestine", "result": 0.6, "unit": "mgs/100 gm fresh tissue"},
      {"measurement": "Concentration of LE in tissue", "setting": "[13]; Kidney", "result": 4.3, "unit": "mgs/100 gm fresh tissue"},
      {"measurement": "Concentration of LE in tissue", "setting": "[13]; Liver", "result": 13.3, "unit": "mgs/100 gm fresh tissue"},
      {"measurement": "Concentration of LE in tissue", "setting": "[13]; Lungs", "result": 1.5, "unit": "mgs/100 gm fresh tissue"},
      {"measurement": "Concentration of LE in tissue", "setting": "[13]; Muscle", "result": 0.7, "unit": "mgs/100 gm fresh tissue"},
      {"measurement": "Concentration of LE in tissue", "setting": "[13]; Plasma", "result": 0.0, "unit": "mgs/100 gm fresh tissue"},
      {"measurement": "Concentration of LE in tissue", "setting": "[13]; RBC", "result": 10.4, "unit": "mgs/100 gm fresh tissue"},
      {"measurement": "Concentration of LE in tissue", "setting": "[13]; Spleen", "result": 1.1, "unit": "mgs/100 gm fresh tissue"},
      {"measurement": "Concentration of LE in tissue", "setting": "[13]; Stomach", "result": 0.4, "unit": "mgs/100 gm fresh tissue"},
      {"measurement": "Concentration of LE in tissue", "setting": "[13]; Testes", "result": 0.0, "unit": "mgs/100 gm fresh tissue"},
      {"measurement": "Concentration of l-ergothioneine in the blood", "setting": "[13]", "result": "1-6 mg/100 ml blood"},
      {"measurement": "Concentration of l-ergothioneine in the blood", "setting": "[14]", "result": "2-10 mg/100 ml blood"},
      {"measurement": "Protection of API against HOCl-induced inactivation", "setting": "[15]", "result": "protect very efficiently"},
      {"measurement": "Glycolytic activity", "setting": "human red cell cells", "result": "significant increase in glycolytic activity"},
      {"measurement": "Protection of mouse skin in vivo", "setting": "mouse skin", "result": "failed to protect mouse skin in vivo"},
      {"measurement": "Effect on spermatozoa viability and survival under hydrogen peroxide", "setting": "spermatozoa", "result": "counteracts the effects of hydrogen peroxide on spermatozoa viability and survival"},
      {"measurement": "Deleterious / negative side effects", "setting": "[16]", "result": "No documented negative side effects; also recorded: no deleterious effects"},
      {"measurement": "Dietary level producing measurable changes in circulating whole blood levels", "setting": "[17]", "result": "1 part per 100,000"},
      {"measurement": "Lactate production", "setting": "erythrocytes [18]", "result": "increased lactate production"}
    ]}
  ]
}
